The compounds below were run on ABCA1 mRNA (assay: ABCA1 mRNA induction in THP-1 cells, QuantiGene branched DNA assay). Conditions: 10 μM test compound, 18-20 hours.
Assay type: cell-based
Description: Modulation of expression of ABCA1 mRNA levels by the compounds of the invention was determined in the following assays.
Induction of ABC1 in THP-1 cells, was measured using QuantiGene® branched DNA assay as per manufacturer's instructions. Cultures of THP-1 were grown to subconfluence in DMEM/10% FBS before replacement with DMEM/BSA and 10 and 3 μM concentrations of the test compounds in DMSO for 18-20 hours. After treatment of cells with compounds, the cells were lysed with lysis buffer at 37° C. for 20 minutes. The cell lysate and ABCA1 specific probe (Genospectra, Inc., Fremont, Calif.) mix were added to the 96 well capture plate and hybridized at 53° C. for 16-18 hours. The signal was amplified using the amplifier and label probes provided with the QuantiGene® assay followed by addition of a luminescent alkaline phosphatase substrate, dioxitane. Luminescence was quantified in Victor V plate reader.
Step 1 • Cells are lysed to release mRNA in the presence of target probes. Target mRNA from lysed cells was then captured by hybridization and transferred to the Capture Plate.
Step 2 • Signal amplification was performed by hybridization of the bDNA Amplifier and Label Probe.
Step 3 • Addition of chemiluminescence substrate yielded a QuantiGene® signal proportional to the amount of mRNA present in the sample.
Table 1 presents the relative fold increase in ABCA1 expression over DMSO for various compounds of the invention when tested at a concentration of […].

Row | SMILES | ABCA1 Induction Fold Increase over DMSO Vehicle
1 | COc1ccc(Br)c2c1OCC1C2Nc2ccc(OC(C)C)cc2C1(C)C (stereo not shown) [Number 83, 1-bromo-4-methoxy-7,7-dimethyl-9-(methylethoxy)-7,12,12a,6a-tetrahydrochromano[4,3-b]quinoline] | 2.7 FOLD INCREASE
2 | COc1cccc2c1C1Nc3ccc(-c4nncn4C)cc3C(C)(C)C1CO2 (stereo not shown) [Number 74, 1-methoxy-7,7-dimethyl-9-(4-methyl(1,2,4-triazol-3-yl))-7,12,12a,6a-tetrahydrochromano[4,3-b]quinoline] | 7.9 FOLD INCREASE
3 | CC1(C)c2cc(C(O)(C(F)(F)F)C(F)(F)F)ccc2NC2c3cc(Cl)cc(Cl)c3OCC21 (stereo not shown) [Number 68, 2-(2,4-dichloro-7,7-dimethyl(7,12,12a,6a-tetrahydrochromano[4,3-b]quinolin-9-yl))-1,1,1,3,3,3-hexafluoropropan-2-ol] | 2.7 FOLD INCREASE
4 | COC(=O)c1cccc(-c2ccc3c(c2)C(C)(C)[C@H]2COc4cccc(OC)c4[C@H]2N3)c1 [Number 113, methyl 3-((12aS,6aR)-1-methoxy-7,7-dimethyl-7,12,12a,6a-tetrahydrochromano[4,3-b]quinolin-9-yl)benzoate] | 1.5 FOLD INCREASE
5 | CNS(=O)(=O)Cc1ccc2c(c1)C(C)(C)C1COc3cccc(OC)c3C1N2 (stereo not shown) [Number 89, {[(1-methoxy-7,7-dimethyl(7,12,12a,6a-tetrahydrochromano[4,3-b]quinolin-9-yl))methyl]sulfonyl}methylamine] | 6.4 FOLD INCREASE
6 | COc1cccc2c1C1Nc3ccc(C(C)=O)cc3C(C)(C)C1CO2 (stereo not shown) [Number 43, 1-(1-methoxy-7,7-dimethyl-7,12,12a,6a-tetrahydrochromano[4,3-b]quinolin-9-yl)ethan-1-one] | 4.1 FOLD INCREASE
7 | Cc1c(C(=O)N2CCS(=O)(=O)CC2)cnn1-c1ccc2c(c1)C(C)(C)[C@H]1COc3cccc(F)c3[C@H]1N2 [Number 145, 1-((6aR,12aS)-6a,7,12,12a-tetrahydro-1-fluoro-7,7-dimethyl-6H-chromeno[4,3-b]quinolin-9-yl)1-5-methyl-1H-pyrazole-4-((1,1-dione-1,4-thiazaperhydroin-yl)methanone)] | 4.5 FOLD INCREASE
8 | COc1ccc(-c2ccc3c(c2)C(C)(C)[C@H]2COc4cccc(OC)c4[C@H]2N3)cc1 [Number 112, 1-((12aS,6aR)-1-methoxy-7,7-dimethyl(7,12,12a,6a-tetrahydrochromano[4,3-b]quinolin-9-yl))-4-methoxybenzene] | 1.7 FOLD INCREASE
9 | COc1ccc(Br)c2c1OCC1C2Nc2ccc(C(N)=S)cc2C1(C)C (stereo not shown) [Number 82, amino(1-bromo-4-methoxy-7,7-dimethyl(7,12,12a,6a-tetrahydrochromano[4,3-b]quinolin-9-yl))methane-1-thione] | 2.0 FOLD INCREASE
10 | COc1cc(-c2ccccc2)cc2c1OC[C@H]1[C@@H]2Nc2ccc(C(O)(C(F)(F)F)C(F)(F)F)cc2C1(C)C [Number 77, 2-((12aS,6aR)-4-methoxy-7,7-dimethyl-2-phenyl(7,12,12a,6a-tetrahydrochromano[4,3-b]quinolin-9-yl))-1,1,1,3,3,3-hexafluoropropan-2-ol] | 5.3 FOLD INCREASE
11 | CC(C)=CCOC(=O)c1ccc2c(c1)OCC1C2Nc2ccc(CB(O)O)cc2C1(C)C (stereo not shown) [Number 11, 3-methylbut-2-enyl 9-(dihydroxyboramethyl)-7,7-dimethyl-7,12,12a,6a-tetrahydrochromano[4,3-b]quinoline-3-carboxylate] | 1.7 FOLD INCREASE
12 | CC1(C)c2cc(C(O)(C(F)(F)F)C(F)(F)F)ccc2N[C@@H]2c3cc(OC(F)(F)F)ccc3OC[C@H]21 [Number 9, 2-[(12aS,6aS)-7,7-dimethyl-2-(trifluoromethoxy)(7,12,12a,6a-tetrahydrochromano[4,3-b]quinolin-9-yl)]-1,1,1,3,3,3-hexafluoropropan-2-ol] | 2.4 FOLD INCREASE
13 | CC1(C)c2cc(C(O)(C(F)(F)F)C(F)(F)F)ccc2N[C@H]2c3cc(Br)ccc3OC[C@H]21 [Number 2, 2-((6aS,12aR)-2-bromo-7,7-dimethyl(7,12,12a,6a-tetrahydrochromano[4,3-b]quinolin-9-yl))-1,1,1,3,3,3-hexafluoropropan-2-ol] | 5.1 FOLD INCREASE
14 | COC(=O)CCc1ccc2c(c1)C1Nc3ccc(C(O)(C(F)(F)F)C(F)(F)F)cc3C(C)(C)C1CO2 (stereo not shown) [Number 40, methyl 3-{7,7-dimethyl-9-[2,2,2-trifluoro-1-hydroxy-1-(trifluoromethyl)ethyl]-7,12,12a,6a-tetrahydrochromano[4,3-b]quinolin-2-yl}propanoate] | 2.1 FOLD INCREASE
15 | Cc1cc(Cl)cc2c1OCC1C2Nc2ccc(C(O)(C(F)(F)F)C(F)(F)F)cc2C1(C)C (stereo not shown) [Number 69, 2-(2-chloro-4,7,7-trimethyl(7,12,12a,6a-tetrahydrochromano[4,3-b]quinolin-9-yl))-1,1,1,3,3,3-hexafluoropropan-2-ol] | 2.6 FOLD INCREASE
16 | COc1cccc2c1[C@H]1Nc3ccccc3C(C)(C)[C@H]1CO2 [Number 53, (12aS,6aR)-1-methoxy-7,7-dimethyl-7,12,12a,6a-tetrahydrochromano[4,3-b]quinoline] | 3.5 FOLD INCREASE
17 | COc1cccc2c1[C@H]1Nc3ccc(-c4ccccc4)cc3C(C)(C)[C@@H]1CO2 [Number 94, (12aS,6aS)-1-methoxy-7,7-dimethyl-9-phenyl-7,12,12a,6a-tetrahydrochromano[4,3-b]quinoline] | 5.8 FOLD INCREASE
18 | CCOc1cccc2c1OCC1C2Nc2ccc(C(O)(C(F)(F)F)C(F)(F)F)cc2C1(C)C (stereo not shown) [Number 22, 2-(4-ethoxy-7,7-dimethyl(7,12,12a,6a-tetrahydrochromano[4,3-b]quinolin-9-yl))-1,1,1,3,3,3-hexafluoropropan-2-ol] | 4.8 FOLD INCREASE

Same assay, conditions: Homo sapiens, 10 μM test compound, 18-20 hours, read-out: ABCA1 Induction Fold Increase over DMSO Vehicle

Row | SMILES | fold induction at 10 µM
19 | COc1cccc2c1[C@@H]1[C@H](CO2)C(C)(C)c2ccccc2N1C(C)C [Number 155, (6aR,12aS)-6a,7,12,12a-tetrahydro-12-isopropyl-1-methoxy-7,7-dimethyl-6H-chromeno[4,3-b]quinoline] | 2.7
20 | COc1ccc2c(c1)C1Nc3ccc(C(O)(C(F)(F)F)C(F)(F)F)cc3C(C)(C)C1CO2 (stereo not shown) [Number 7, 1,1,1,3,3,3-hexafluoro-2-(2-methoxy-7,7-dimethyl(7,12,12a,6a-tetrahydrochromano[4,3-b]quinolin-9-yl))propan-2-ol] | 3.1
21 | COC(=O)c1ccc2c(c1)C(C)(C)[C@@H]1COc3c(OC)cc(Br)cc3[C@H]1N2 [Number 152, (6aS,12aS)-methyl 2-bromo-6a,7,12,12a-tetrahydro-4-methoxy-7,7-dimethyl-6H-chromeno[4,3-b]quinoline-9-carboxylate] | 6.1
22 | COc1cccc2c1OC[C@H]1[C@@H]2Nc2ccc(C(=O)N3CCOCC3)cc2C1(C)C [Number 119, ((6aR,12aS)-6a,7,12,12a-tetrahydro-4-methoxy-7,7-dimethyl-6H-chromeno[4,3-b]quinolin-9-yl)(morpholino)methanone] | 7.5
23 | COc1cccc2c1[C@H]1Nc3ccc(-n4ncc(C(=O)O)c4C)cc3C(C)(C)[C@H]1CO2 [Number 118, 1-((6aR,12aS)-6a,7,12,12a-tetrahydro-1-methoxy-7,7-dimethyl-6H-chromeno[4,3-b]quinolin-9-yl)-5-methyl-1H-pyrazole-4-carboxylic acid] | 4
24 | COc1cccc2c1[C@H]1Nc3ccc(-n4cc(C(=O)N(C)C)cn4)cc3C(C)(C)[C@H]1CO2 [Number 137, 1-((6aR,12aS)-6a,7,12,12a-tetrahydro-1-methoxy-7,7-dimethyl-6H-chromeno[4,3-b]quinolin-9-yl)-N,N-dimethyl-1H-pyrazole-4-carboxamide] | 7
25 | CC1(C)c2cc(-c3nc(C(=O)O)co3)ccc2N[C@@H]2c3c(F)cccc3OC[C@@H]21 [Number 131, 2-((6aR,12aS)-1-fluoro-6a,7,12,12a-tetrahydro-7,7-dimethyl-6H-chromeno[4,3-b]quinolin-9-yl)oxazole-4-carboxylic acid] | 2
26 | CCCN1c2ccccc2C(C)(C)[C@@H]2COc3cccc(OC)c3[C@H]21 [Number 173, (6aS,12aS)-12-propyl-6a,7,12,12a-tetrahydro-1-methoxy-7,7-dimethyl-6H-chromeno[4,3-b]quinoline] | 1.8
27 | CCS(=O)(=O)N1CCN(C(=O)c2ccc3c(c2)C(C)(C)[C@@H]2COc4c(OC)cccc4[C@H]2N3)CC1 [Number 133, ((6aS,12aS)-4-methoxy-6a,7,12,12a-tetrahydro-7,7-dimethyl-6H-chromeno[4,3-b]quinolin-9-yl)(4-ethanesulfonylpiperazin-1-yl)methanone] | 3.8
28 | CN(C)C(=O)/C=C/c1ccc2c(c1)C1Nc3ccc(C(O)(C(F)(F)F)C(F)(F)F)cc3C(C)(C)C1CO2 (stereo not shown) [Number 36, (2E)-3-{7,7-dimethyl-9-[2,2,2-trifluoro-1-hydroxy-1-(trifluoromethyl)ethyl](7,12,12a,6a-tetrahydrochromano[4,3-b]quinolin-2-yl)}-N,N-dimethylprop-2-enamide] | 5.3

From US7432276B2, “ABCA1 elevating compounds” (CV Therapeutics, Inc., priority 2005, dated 2008)
